{"source": "patent US20030153618A1", "about": "“Treatment and prevention of herpes simplex infections” (priority 1999, published 2003)", "key": {"[1]": {"test_system": "HSV, Type II", "experiment": "Direct plaque-forming unit (PFU) count in BSC cells in defined media with set lysine (or derivative):arginine ratio", "assay_type": "cell-based", "conditions": "average of three tests", "procedure": "Absorbed virons were absorbed in susceptible cells in chemically defined media and the number of plaques made were counted. (See Davis, B. D., et al., Microbiology, 2nd Ed., Harper & Row, 1973, Part V, and sources cited therein for procedural details and discussion of the plaque method.)\nThe cell line chosen was green monkey kidney cells (BSC) that have been passed greater than 41 times. […] The virons were added to a confluent lawn of BSC cells and allowed to absorb at 25° C. for one hour. The unabsorbed virons and the media were removed by washing three times in PBS. […] The control media contained a lysine/arginine ratio of 1:1. The plaques were counted when easily readable. Flasks are done in triplicate."}, "[2]": {"test_system": "Herpes simplex II virus", "experiment": "Back titration plaque assay: PFU counts at stated amounts of compound under test and arginine", "assay_type": "cell-based, Herpes simplex II virus (BSC cells)", "procedure": "The following experiments were conducted by back titration: Herpes simplex II virus from laboratory stocks was used. BSC cells were grown to confluence in Eagles medium with 15% fetal calf serum, 150 units per milliliter of penicillin and 100 micrograms per milliliter of streptomycin. The cultures were inoculated with 500 PFU of HS II. The virons were allowed to absorb for one hour at 25° C. The tissue cultures were then washed three times with sterile PBS to remove excess media and non-absorbed virons. The cells were then incubated at 37° C. until four-plus cytopathic effects were observed. The cells were then disrupted by slow freeze-thaw two times. The suspension was then clarified by slow speed centrifugation at 4° C. The supemanant suspension was then added to confluent BSC cultures. After one hour absorption, the cells were washed with PBS twice. The cells were overlaid in defined reagent (in triplicate) Eagles media in noble agar. The cells were then incubated at 37° C. until the plaques were easily counted, usually 40 t 72 hours. the cells were then washed two times with PBS and then fixed with 10% H2CO and a 2% sodium acetate. The cells were then stained in 0.1% crystal violet in ethanol. In the tables which follow the concentration of the compound to be tested, in micrograms per milliliter, is listed across the top of the table and the concentration of arginine in micrograms per milliliter is listed down the left side of the table, the count of plaque-forming units being shown in the matrix."}}, "data": [{"smiles": "CC(N)CCCC(N)C(=O)O", "note": "(stereo not shown) [6-Methyl lysine]", "values": [{"measurement": "P.F.U. Count", "setting": "[1]; Compound Ratio to Arginine 10:1", "value": "<5"}, {"measurement": "P.F.U. Count", "setting": "[1]; Compound Ratio to Arginine 100:1", "value": "<5"}, {"measurement": "order of blocking the arginine molecule (rank of efficacy)", "setting": "[2]; among the tested derivatives", "value": "third most efficacious"}, {"measurement": "P.F.U. Count", "setting": "[2]; compound 10 μg/ml, arginine 0 μg/ml", "value": 0}, {"measurement": "P.F.U. Count", "setting": "[2]; compound 10 μg/ml, arginine 2.5 μg/ml", "value": 0}, {"measurement": "P.F.U. Count", "setting": "[2]; compound 10 μg/ml, arginine 5.0 μg/ml", "value": 0}, {"measurement": "P.F.U. Count", "setting": "[2]; compound 10 μg/ml, arginine 7.5 μg/ml", "value": 0}, {"measurement": "P.F.U. Count", "setting": "[2]; compound 10 μg/ml, arginine 10 μg/ml", "value": "4.0 × 10^3"}, {"measurement": "P.F.U. Count", "setting": "[2]; compound 10 μg/ml, arginine 15 μg/ml", "value": "1.8 × 10^3"}, {"measurement": "P.F.U. Count", "setting": "[2]; compound 10 μg/ml, arginine 20 μg/ml", "value": "2.8 × 10^6"}, {"measurement": "P.F.U. Count", "setting": "[2]; compound 10 μg/ml, arginine 25 μg/ml", "value": "2.7 × 10^5"}, {"measurement": "P.F.U. Count", "setting": "[2]; compound 25 μg/ml, arginine 0 μg/ml", "value": 0}, {"measurement": "P.F.U. Count", "setting": "[2]; compound 25 μg/ml, arginine 2.5 μg/ml", "value": 0}, {"measurement": "P.F.U. Count", "setting": "[2]; compound 25 μg/ml, arginine 5.0 μg/ml", "value": 0}, {"measurement": "P.F.U. Count", "setting": "[2]; compound 25 μg/ml, arginine 7.5 μg/ml", "value": 0}, {"measurement": "P.F.U. Count", "setting": "[2]; compound 25 μg/ml, arginine 10 μg/ml", "value": "2.1 × 10^3"}, {"measurement": "P.F.U. Count", "setting": "[2]; compound 25 μg/ml, arginine 15 μg/ml", "value": "2.1 × 10^3"}, {"measurement": "P.F.U. Count", "setting": "[2]; compound 25 μg/ml, arginine 20 μg/ml", "value": "2.4 × 10^5"}, {"measurement": "P.F.U. Count", "setting": "[2]; compound 25 μg/ml, arginine 25 μg/ml", "value": "2.9 × 10^5"}, {"measurement": "P.F.U. Count", "setting": "[2]; compound 50 μg/ml, arginine 0 μg/ml", "value": 0}, {"measurement": "P.F.U. Count", "setting": "[2]; compound 50 μg/ml, arginine 2.5 μg/ml", "value": 0}, {"measurement": "P.F.U. Count", "setting": "[2]; compound 50 μg/ml, arginine 5.0 μg/ml", "value": 0}, {"measurement": "P.F.U. Count", "setting": "[2]; compound 50 μg/ml, arginine 7.5 μg/ml", "value": 0}, {"measurement": "P.F.U. Count", "setting": "[2]; compound 50 μg/ml, arginine 10 μg/ml", "value": 0}, {"measurement": "P.F.U. Count", "setting": "[2]; compound 50 μg/ml, arginine 15 μg/ml", "value": "1.7 × 10^3"}, {"measurement": "P.F.U. Count", "setting": "[2]; compound 50 μg/ml, arginine 20 μg/ml", "value": "1.7 × 10^5"}, {"measurement": "P.F.U. Count", "setting": "[2]; compound 50 μg/ml, arginine 25 μg/ml", "value": "2.0 × 10^5"}, {"measurement": "P.F.U. Count", "setting": "[2]; compound 100 μg/ml, arginine 0 μg/ml", "value": 0}, {"measurement": "P.F.U. Count", "setting": "[2]; compound 100 μg/ml, arginine 2.5 μg/ml", "value": 0}, {"measurement": "P.F.U. Count", "setting": "[2]; compound 100 μg/ml, arginine 5.0 μg/ml", "value": 0}, {"measurement": "P.F.U. Count", "setting": "[2]; compound 100 μg/ml, arginine 7.5 μg/ml", "value": 0}, {"measurement": "P.F.U. Count", "setting": "[2]; compound 100 μg/ml, arginine 10 μg/ml", "value": 0}, {"measurement": "P.F.U. Count", "setting": "[2]; compound 100 μg/ml, arginine 15 μg/ml", "value": 0}, {"measurement": "P.F.U. Count", "setting": "[2]; compound 100 μg/ml, arginine 20 μg/ml", "value": "6.4 × 10^4"}, {"measurement": "P.F.U. Count", "setting": "[2]; compound 100 μg/ml, arginine 25 μg/ml", "value": "5.8 × 10^4"}, {"measurement": "P.F.U. Count", "setting": "[2]; compound 200 μg/ml, arginine 0 μg/ml", "value": 0}, {"measurement": "P.F.U. Count", "setting": "[2]; compound 200 μg/ml, arginine 2.5 μg/ml", "value": 0}, {"measurement": "P.F.U. Count", "setting": "[2]; compound 200 μg/ml, arginine 5.0 μg/ml", "value": 0}, {"measurement": "P.F.U. Count", "setting": "[2]; compound 200 μg/ml, arginine 7.5 μg/ml", "value": 0}, {"measurement": "P.F.U. Count", "setting": "[2]; compound 200 μg/ml, arginine 10 μg/ml", "value": 0}, {"measurement": "P.F.U. Count", "setting": "[2]; compound 200 μg/ml, arginine 15 μg/ml", "value": 0}, {"measurement": "P.F.U. Count", "setting": "[2]; compound 200 μg/ml, arginine 20 μg/ml", "value": "6.9 × 10^4"}, {"measurement": "P.F.U. Count", "setting": "[2]; compound 200 μg/ml, arginine 25 μg/ml", "value": "4.7 × 10^4"}, {"measurement": "P.F.U. Count", "setting": "[2]; compound 300 μg/ml, arginine 0 μg/ml", "value": 0}, {"measurement": "P.F.U. Count", "setting": "[2]; compound 300 μg/ml, arginine 2.5 μg/ml", "value": 0}, {"measurement": "P.F.U. Count", "setting": "[2]; compound 300 μg/ml, arginine 5.0 μg/ml", "value": 0}, {"measurement": "P.F.U. Count", "setting": "[2]; compound 300 μg/ml, arginine 7.5 μg/ml", "value": 0}, {"measurement": "P.F.U. Count", "setting": "[2]; compound 300 μg/ml, arginine 10 μg/ml", "value": 0}, {"measurement": "P.F.U. Count", "setting": "[2]; compound 300 μg/ml, arginine 15 μg/ml", "value": 0}, {"measurement": "P.F.U. Count", "setting": "[2]; compound 300 μg/ml, arginine 20 μg/ml", "value": "5.0 × 10^3"}, {"measurement": "P.F.U. Count", "setting": "[2]; compound 300 μg/ml, arginine 25 μg/ml", "value": "4.0 × 10^4"}, {"measurement": "P.F.U. Count", "setting": "[2]; compound 400 μg/ml, arginine 0 μg/ml", "value": 0}, {"measurement": "P.F.U. Count", "setting": "[2]; compound 400 μg/ml, arginine 2.5 μg/ml", "value": 0}, {"measurement": "P.F.U. Count", "setting": "[2]; compound 400 μg/ml, arginine 5.0 μg/ml", "value": 0}, {"measurement": "P.F.U. Count", "setting": "[2]; compound 400 μg/ml, arginine 7.5 μg/ml", "value": 0}, {"measurement": "P.F.U. Count", "setting": "[2]; compound 400 μg/ml, arginine 10 μg/ml", "value": 0}, {"measurement": "P.F.U. Count", "setting": "[2]; compound 400 μg/ml, arginine 15 μg/ml", "value": 0}, {"measurement": "P.F.U. Count", "setting": "[2]; compound 400 μg/ml, arginine 20 μg/ml", "value": 690}, {"measurement": "P.F.U. Count", "setting": "[2]; compound 400 μg/ml, arginine 25 μg/ml", "value": "3.9 × 10^3"}, {"measurement": "P.F.U. Count", "setting": "[2]; compound 500 μg/ml, arginine 0 μg/ml", "value": 0}, {"measurement": "P.F.U. Count", "setting": "[2]; compound 500 μg/ml, arginine 2.5 μg/ml", "value": 0}, {"measurement": "P.F.U. Count", "setting": "[2]; compound 500 μg/ml, arginine 5.0 μg/ml", "value": 0}, {"measurement": "P.F.U. Count", "setting": "[2]; compound 500 μg/ml, arginine 7.5 μg/ml", "value": 0}, {"measurement": "P.F.U. Count", "setting": "[2]; compound 500 μg/ml, arginine 10 μg/ml", "value": 0}, {"measurement": "P.F.U. Count", "setting": "[2]; compound 500 μg/ml, arginine 15 μg/ml", "value": 0}, {"measurement": "P.F.U. Count", "setting": "[2]; compound 500 μg/ml, arginine 20 μg/ml", "value": 56}, {"measurement": "P.F.U. Count", "setting": "[2]; compound 500 μg/ml, arginine 25 μg/ml", "value": "3.71 × 10^3"}]}]}
